This assay in a line: Displacement of [125I]somatostatin from SSTR in rat AR42J cells. It is filed as cell-based. As to conditions: ar-42j. (Displacement assays read how much labelled ligand stays bound in the presence of the test substance.)

The term IC50 denotes the concentration at which inhibition is half-maximal.

Where a SMILES comes first, the peptide text is derived from it. [ ]: non-standard residue; d: D form. The star is where a group is joined. X1 = NCCCC[C@H](NC(=O)[C@H](CS)NC(=O)[C@H](CCCCN)NC(=O)[C@@H](N)CNC(=O)C*)C(N)=O; NMeF = CN[C@@H](Cc1ccccc1)C(=O)O; hCys = N[C@@H](CCS)C(=O)O

On to `CC(C)[C@@H]1NC(=O)[C@H](CCCCN)NC(=O)[C@@H](Cc2c[nH]c3ccccc23)NC(=O)[C@H](Cc2ccc(O)cc2)NC(=O)[C@H](Cc2ccccc2)N(C)C(=O)[C@H](CCSCC(=O)NC[C@H](N)C(=O)N[C@@H](CCCCN)C(=O)N[C@@H](CS)C(=O)N[C@@H](CCCCN)C(N)=O)NC1=O` [DEPREOTIDE] (cyclo([hCys](X1)[NMeF]Y[dW]KV)), for which the IC50 amounted to 7.4 nM.

Source of the values: ChEMBL document CHEMBL1148759, “Isolation, characterization, and biological evaluation of syn and anti diastereomers of [(99m)Tc]technetium depreotide: a somatostatin receptor binding tumor imaging agent” (J Med Chem, 2007).
